{"source": "BindingDB's records for doi:10.1016/j.bmc.2015.07.027", "about": "(Ocean University of China, 2015)", "data": [{"assay": "Modulation of P-gp (unknown origin) transfected in human MDA435/LCC6MDR cells assessed as paclitaxel IC50 for cell growth inhibition at 1 uM after 5 days by MTS assay", "units": {"IC50": "nM"}, "values": [{"smiles": "COc1ccc(C2=C(c3ccc(OC)c(OC)c3)C(=O)N(C(=O)N3CCN(CC(=O)c4ccc(OCc5ccccc5)c(OC)c4)CC3)C2=O)cc1OC", "IC50": 26}, {"smiles": "COc1ccc(C2=C(c3ccc(OC)c(OC)c3)C(=O)N(C(=O)N3CCN(CC(=O)c4ccc(S(C)(=O)=O)cc4)CC3)C2=O)cc1OC", "IC50": 136}, {"smiles": "COc1ccc(C2=C(c3ccc(OC)c(OC)c3)C(=O)N(C(=O)Nc3ccc4c(c3)C(=O)OC4)C2=O)cc1OC", "IC50": 126}, {"smiles": "CCCCC1OC(=O)c2cc(NC(=O)N3C(=O)C(c4ccc(OC)c(OC)c4)=C(c4ccc(OC)c(OC)c4)C3=O)ccc21", "note": "(centres undefined)", "IC50": 58}]}]}
